Source: the NIST ThermoML archive (doi:10.1021/je700329a)
Values joined by “and” are separate entries in the source; they are usually repeats but may differ in a detail not shown here. Equal values may be shown once. ± gives the expanded uncertainty stated by the source.

Columns and labels:
[1] = 101.33 kPa, Liquid; for viscosity: Stabinger Viscometer; for mass density: Vibrating tube method; for speed of sound: DSA 5000; for electrical conductivity: Alternating current cell with electrodes
[2] = wn = mass fraction of the nth substance listed; conditions: 101 kPa, Liquid; for electrical conductivity: Alternating current cell with electrodes; for kinematic viscosity: Capillary tube (Ostwald / Ubbelohde) method; for speed of sound: Pulse-echo method; for mass density: Vibrating tube method

CCCCCC[n+]1ccn(C)c1.O=S(=O)([N-]S(=O)(=O)C(F)(F)F)C(F)(F)F
viscosity ([1]; 258.15 K): 941.8 ± 19 mPa·s
mass density ([1]; 258.15 K): 1407.6 ± 0.2 kg/m3
viscosity ([1]; 263.15 K): 612.7 ± 12 mPa·s
mass density ([1]; 263.15 K): 1403.1 ± 0.2 kg/m3
viscosity ([1]; 268.15 K): 417.4 ± 8.5 mPa·s
mass density ([1]; 268.15 K): 1398.5 ± 0.2 kg/m3
viscosity ([1]; 273.15 K): 291.2 ± 5.9 mPa·s
mass density ([1]; 273.15 K): 1394 ± 0.2 kg/m3
viscosity ([1]; 278.15 K): 207.6 ± 4.2 mPa·s
mass density ([1]; 278.15 K): 1389.5 ± 0.2 kg/m3
speed of sound ([1]; 283.15 K): 1262 ± 1 m/s and 1262.4 ± 1 m/s
viscosity ([1]; 283.15 K): 153.3 ± 3.1 mPa·s
mass density ([1]; 283.15 K): 1385 ± 0.2 kg/m3 and 1385.9 ± 0.2 kg/m3 and 1386 ± 0.2 kg/m3
electrical conductivity ([1]; 288.15 K): 0.135 ± 0.006 S/m
viscosity ([1]; 288.15 K): 115.8 ± 2.3 mPa·s
mass density ([1]; 288.15 K): 1380.5 ± 0.2 kg/m3
electrical conductivity ([1]; 293.15 K): 0.173 ± 0.007 S/m
speed of sound ([1]; 293.15 K): 1238.4 ± 1 m/s and 1238.5 ± 1 m/s
viscosity ([1]; 293.15 K): 89.54 ± 1.8 mPa·s and 89.26 ± 1.8 mPa·s
mass density ([1]; 293.15 K): 1376.7 ± 0.2 kg/m3 [middle of 4 runs]
electrical conductivity ([1]; 298.15 K): 0.218 ± 0.009 S/m
speed of sound ([1]; 298.15 K): 1226.8 ± 1 m/s and 1226.9 ± 1 m/s
viscosity ([1]; 298.15 K): 70.09 ± 1.4 mPa·s and 70.29 ± 1.4 mPa·s
mass density ([1]; 298.15 K): 1372.1 ± 0.2 kg/m3 [middle of 4 runs]
speed of sound ([1]; 303.15 K): 1215.5 ± 1 m/s and 1215.6 ± 1 m/s
viscosity ([1]; 303.15 K): 56.11 ± 1.1 mPa·s
mass density ([1]; 303.15 K): 1367.3 ± 0.2 kg/m3 and 1367.5 ± 0.2 kg/m3 and 1367.6 ± 0.2 kg/m3
electrical conductivity ([1]; 308.15 K): 0.328 ± 0.013 S/m
speed of sound ([1]; 313.15 K): 1193.3 ± 1 m/s and 1193.4 ± 1 m/s
viscosity ([1]; 313.15 K): 37.41 ± 0.75 mPa·s
mass density ([1]; 313.15 K): 1358.3 ± 0.2 kg/m3 and 1358.4 ± 0.2 kg/m3
electrical conductivity ([1]; 323.15 K): 0.548 ± 0.022 S/m
speed of sound ([1]; 323.15 K): 1171.5 ± 1 m/s and 1171.6 ± 1 m/s
viscosity ([1]; 323.15 K): 26.25 ± 0.53 mPa·s
mass density ([1]; 323.15 K): 1349.3 ± 0.2 kg/m3 and 1349.4 ± 0.2 kg/m3
speed of sound ([1]; 333.15 K): 1149.8 ± 1 m/s and 1150.4 ± 1 m/s
viscosity ([1]; 333.15 K): 19.22 ± 0.39 mPa·s
mass density ([1]; 333.15 K): 1340.3 ± 0.2 kg/m3 and 1340.4 ± 0.2 kg/m3
speed of sound ([1]; 343.15 K): 1128.4 ± 1 m/s and 1129.6 ± 1 m/s
viscosity ([1]; 343.15 K): 14.58 ± 0.29 mPa·s
mass density ([1]; 343.15 K): 1331.3 ± 0.2 kg/m3 and 1331.4 ± 0.2 kg/m3
viscosity ([1]; 353.15 K): 11.38 ± 0.23 mPa·s
mass density ([1]; 353.15 K): 1322.5 ± 0.2 kg/m3
viscosity ([1]; 363.15 K): 9.128 ± 0.18 mPa·s
mass density ([1]; 363.15 K): 1313.6 ± 0.2 kg/m3
viscosity ([1]; 373.15 K): 7.463 ± 0.15 mPa·s
mass density ([1]; 373.15 K): 1304.8 ± 0.2 kg/m3

CCCCCC[n+]1ccn(C)c1.O=S(=O)([N-]S(=O)(=O)C(F)(F)F)C(F)(F)F + O
electrical conductivity ([2]; 288.15 K, w2 = 1e-05): 0.135 ± 0.006 S/m
electrical conductivity ([2]; 288.15 K, w2 = 0.00094): 0.142 ± 0.006 S/m
electrical conductivity ([2]; 293.15 K, w2 = 1e-05): 0.173 ± 0.007 S/m
electrical conductivity ([2]; 293.15 K, w2 = 0.00094): 0.18 ± 0.007 S/m
electrical conductivity ([2]; 293.15 K, w2 = 0.00727): 0.232 ± 0.01 S/m
electrical conductivity ([2]; 293.15 K, w2 = 0.00784): 0.237 ± 0.01 S/m
electrical conductivity ([2]; 293.15 K, w2 = 0.00898): 0.246 ± 0.01 S/m
kinematic viscosity ([2]; 293.15 K, w2 = 2e-05): 6.53e-05 ± 1.5e-06 m2/s
kinematic viscosity ([2]; 293.15 K, w2 = 0.0011): 6.16e-05 ± 1.3e-06 m2/s
kinematic viscosity ([2]; 293.15 K, w2 = 0.0082): 4.55e-05 ± 1e-06 m2/s
electrical conductivity ([2]; 298.15 K, w2 = 1e-05): 0.218 ± 0.009 S/m
electrical conductivity ([2]; 298.15 K, w2 = 0.00094): 0.227 ± 0.009 S/m
electrical conductivity ([2]; 298.15 K, w2 = 0.00727): 0.289 ± 0.012 S/m
electrical conductivity ([2]; 298.15 K, w2 = 0.00784): 0.295 ± 0.012 S/m
electrical conductivity ([2]; 298.15 K, w2 = 0.00898): 0.306 ± 0.012 S/m
kinematic viscosity ([2]; 298.15 K, w2 = 1e-05): 5.12e-05 ± 1.2e-06 m2/s
kinematic viscosity ([2]; 298.15 K, w2 = 2e-05): 5.13e-05 ± 1.2e-06 m2/s
kinematic viscosity ([2]; 298.15 K, w2 = 0.00112): 4.85e-05 ± 1.1e-06 m2/s
kinematic viscosity ([2]; 298.15 K, w2 = 0.00819): 3.63e-05 ± 8.3e-07 m2/s
speed of sound ([2]; 298.15 K, w2 = 3.5e-05): 1226.6 ± 1.2 m/s
speed of sound ([2]; 298.15 K, w2 = 0.00106): 1227.4 ± 1.2 m/s
speed of sound ([2]; 298.15 K, w2 = 0.007315): 1230.3 ± 1.2 m/s
mass density ([2]; 298.15 K, w2 = 3.5e-05): 1372.07 ± 2 kg/m3
mass density ([2]; 298.15 K, w2 = 0.00102): 1370.45 ± 2 kg/m3
mass density ([2]; 298.15 K, w2 = 0.00722): 1367.04 ± 2 kg/m3
electrical conductivity ([2]; 308.15 K, w2 = 1e-05): 0.328 ± 0.013 S/m
electrical conductivity ([2]; 308.15 K, w2 = 0.00094): 0.34 ± 0.014 S/m
electrical conductivity ([2]; 323.15 K, w2 = 1e-05): 0.548 ± 0.022 S/m
electrical conductivity ([2]; 323.15 K, w2 = 0.00094): 0.566 ± 0.023 S/m
